Reference: patent publication US12291508B2, “Hydrazide containing nuclear transport modulators and uses thereof” (Karyopharm Therapeutics Inc., priority 2011, dated 2025)

Assays:
[1] = target: T1, CRM1-mediated nuclear export (Homo sapiens, UniProt O14980); experiment: RevGFP assay, inhibition of nuclear export; assay type: cell-based; settings: U2OS-RevGFP cells, about 1 hr incubation; read-out: Rev Export
T1 construct: endogenous in cells; host or cells: U2OS-RevGFP cells
Procedure: The ability of exemplary compounds of the invention to inhibit CRM1-mediated nuclear export was assessed in a RevGFP assay. Rev is a protein from human immunodeficiency virus type 1 (HIV-1) and contains a nuclear export signal (NES) in its C-terminal domain and a nuclear localization signal (NLS) in its N-terminal domain. Nuclear export of Rev protein is dependent on the classical NES/CRM1 pathway (Neville et al. 1997).
In this assay, U2OS-RevGFP cells were seeded onto clear-bottomed, black, 384-well plates the day before the experiment. Compounds were serially diluted 1:2 in DMEM, starting from 40 μM in a separate, 384-well plate, and then transferred onto the cells. The cells were incubated with compound for about 1 hr before fixation with 3.7% formaldehyde and nuclei staining with Hoechst 33258. The amount of GFP in cell nuclei was measured and the IC50 of each compound was determined (Kau et al. 2003).

[2] = Brain to Plasma (B:P) ratio in mice; assay type: in vivo; settings: mouse, brain/plasma, 10 mg/kg po, 2 hours post-dose
Procedure: Brain to Plasma (B:P) Ratio. […] Following collection, brain tissue was rinsed with cold saline, dried on filter paper, weighed and snap-frozen by placing on dry ice. All samples were stored frozen at approximately −80° C. until analysis. […] Plasma samples were treated with the identical method (except homogenization step) and the concentration of compound in each matrix was calculated based on generated standard curves.

[3] = Pharmacokinetic (PK) assay, plasma AUC in mice; assay type: in vivo; settings: mouse, plasma, 10 mg/kg po
Procedure: AUC. Blood was collected from mice (N=3) to contribute to the total of 10 time points (pre-dose, 5 min, 15 min, 30 min, 1 hour, 2 hours, 4 hours, 8 hours, 12 hours and 24 hours post dose). Mice were bled on a rotating basis, each mouse contributing 3 time points to the blood collection. At the designated time points, animals were anaesthetized under isoflurane, and approximately 110 μL of blood per time point was collected via retro-orbital puncture into pre-cooled K2EDTA (anti-coagulant) tubes. Blood samples were put on wet ice and centrifuged (2000 g, 5 min at 4° C.) to obtain plasma within 30 minutes of sample collection. All samples were stored frozen at approximately −80° C. until analysis. Prior to analysis, samples were mixed with internal standard (dexamethasone) in acetonitrile, vortexed, centrifuged, and supernatant was injected for analysis. Concentration of compounds in plasma was determined using LC-MS-MS instrumentation (API 4000, Triple Quadruple with electrospray ionization; Acuity Ultra Performance Liquid Chromatography column C18, with MeOH and formic acid as organic solvents). AUC values were calculated using WinNonlin Professional 6.2 software package, non-compartmental pharmacokinetic model NCA200.

[4] = test system: MM.1S multiple myeloma cell line; experiment: CellTiter 96 AQueous One Solution cell proliferation assay, MM.1S; assay type: cell-based; settings: Homo sapiens, MM1.S, 72 h of treatment, read-out: Cytotoxicity Assay
Text: The CellTiter 96® AQueous One Solution cell proliferation assay (Promega) was used on MM.1S multiple myeloma cell line to study the cytotoxic and cytostatic properties of the compounds. The assay is based on the cleavage of the tetrazolium salt, MTS, in the presence of an electron-coupling reagent PES (phenazine ethosulfate). The MTS tetrazolium compound is bioreduced by cells into a colored formazan product that is soluble in tissue culture medium. This conversion is presumably accomplished by NADPH or NADH produced by dehydrogenase enzymes in metabolically active cells. Assays are performed by adding a small amount of the CellTiter 96® AQueous One solution reagent directly to culture wells, incubating for 1-4 hours and then recording the absorbance at 490 nm with a 96-well plate reader.
The cells were seeded at 5×10^3 to 1.5×10^4 cells in each well of a 96-well plate in 100 μL of fresh culture medium and adherent cells were allowed to attach overnight. The stock solutions of the compounds were diluted in cell culture medium to obtain eight concentrations of each drug, ranging from 1 nM to 30 μM and DMSO at less than 1% v/v was used as a negative control. The resulting drug solutions were transferred onto the cells. After 72 h of treatment, 20 μl of CellTiter 96® AQueous reagent was added into each well of the 96-well assay plates and the plate was incubated at 37° C. for 1-4 hours in a humidified, 5% CO2 atmosphere. Then the absorbance of each well was recorded at 490 nm using a 96-well plate reader. In most cases, the assay was performed in triplicate and the results were presented as half maximal inhibitory concentration (IC50). Optical density versus compound concentration was plotted and analyzed using non-linear regression equations (IDBS XLfit) and the IC50 for each compound was calculated.

T1 sequence (O14980 whole entry): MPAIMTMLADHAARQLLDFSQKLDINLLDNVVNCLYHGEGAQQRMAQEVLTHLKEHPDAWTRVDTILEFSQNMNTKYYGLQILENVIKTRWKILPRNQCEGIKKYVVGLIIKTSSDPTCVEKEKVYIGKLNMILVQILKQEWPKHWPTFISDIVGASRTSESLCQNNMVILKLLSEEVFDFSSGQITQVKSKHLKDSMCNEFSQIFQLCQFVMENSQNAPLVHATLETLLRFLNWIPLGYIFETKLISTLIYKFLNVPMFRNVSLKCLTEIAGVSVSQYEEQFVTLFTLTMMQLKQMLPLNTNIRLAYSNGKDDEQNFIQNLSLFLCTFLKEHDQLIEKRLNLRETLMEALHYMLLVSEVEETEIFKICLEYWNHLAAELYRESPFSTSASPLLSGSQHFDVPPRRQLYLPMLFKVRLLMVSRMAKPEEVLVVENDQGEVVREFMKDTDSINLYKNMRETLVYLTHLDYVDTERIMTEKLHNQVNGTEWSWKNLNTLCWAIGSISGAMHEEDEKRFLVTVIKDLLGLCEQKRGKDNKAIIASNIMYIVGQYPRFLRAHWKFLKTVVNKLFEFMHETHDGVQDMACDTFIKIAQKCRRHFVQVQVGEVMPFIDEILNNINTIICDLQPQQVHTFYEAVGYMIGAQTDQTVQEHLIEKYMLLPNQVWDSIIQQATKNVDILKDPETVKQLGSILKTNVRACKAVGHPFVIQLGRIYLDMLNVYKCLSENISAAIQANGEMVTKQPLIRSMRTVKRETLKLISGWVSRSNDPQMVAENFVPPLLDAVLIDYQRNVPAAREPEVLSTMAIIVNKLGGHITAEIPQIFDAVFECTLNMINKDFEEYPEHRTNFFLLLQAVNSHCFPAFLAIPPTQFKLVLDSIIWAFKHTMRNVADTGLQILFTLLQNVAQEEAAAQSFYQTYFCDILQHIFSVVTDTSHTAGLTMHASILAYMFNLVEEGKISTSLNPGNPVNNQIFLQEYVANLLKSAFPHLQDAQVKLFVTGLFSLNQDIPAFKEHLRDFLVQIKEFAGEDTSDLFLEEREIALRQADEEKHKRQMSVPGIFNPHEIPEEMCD

IC50 [1]: ≤ 1 µM
Kp at 2 h [2]: 0.13
AUC(0-inf) [3]: 24900 ng·h/mL
Compound: O=C(/C=C\n1cnc(-c2cc(C(F)(F)F)cc(C(F)(F)F)c2)n1)NNc1cc(Cl)ncn1 [Compound I-12, (Z)-3-(3-(3,5-bis(trifluoromethyl)phenyl)-1H-1,2,4-triazol-1-yl)-N′-(6-chloropyrimidin-4-yl)acrylohydrazide]
IC50 [4]: ≤ 1 µM
